Reference: patent USRE47141E1, “Methods of treating fibrosis, cancer and vascular injuries” (EWHA University—Industry Collaboration Foundation, priority 2010, dated 2018)
Marks after values point to notes of the source that are not given here.

Legend:
[1] = tested on: SBE-luc and GFAP-luc mice immunized with MOG35-55; conditions: cited from earlier work
rats = conditions: cited from earlier work
UUO rats = conditions: cited from earlier work
Tramp C2 = conditions: mice treated with murine prostate cancer cell line Tramp C2; cited from earlier work
[2] = tested on: BALB/c 4T1 xenografted mice; assay: Anti-metastatic effect on BALB/c 4T1 xenografted mice model; assay type: in vivo; conditions: Example 3 13.6 or 27.3 mg/kg orally BID, four weeks; Example 2 5, 10, 20, or 40 mg/kg orally; Example 61 43.6 mg/kg intraperitoneally every other day, 2.5 weeks
Method: Female BALB/c mice were purchased from Orient Bio Inc. (Seoul, Korea). Animals were maintained in a temperature-controlled room (22° C.) and supplied with food and water ad libitum. 4T1 cells (1.2×10^4 cells) were suspended in PBS and implanted into the left #4 mammary fat pad of five to six-week-old female BALB/c mice (day 0). In Experiment 1, treatment was started after tumor implantation (day 0). […] In Experiment 2, treatment was started on day 4. […] In Experiment 3, treatment was started on day 4. […] In Experiment 4, 4T1 cells (1×10^4 cells) were suspended in PBS and implanted into the left #4 mammary fat pad of ten-week-old female BALB/c mice (day 0). Treatment was started on day 10. Example 61 (43.6 mg/kg) dissolved in saline was given to mice intraperitoneally every other day for 2.5 weeks. In all Experiments, mice were sacrificed at 24 to 72 h after the last dosing, and 15% India ink solution (Hardy Diagnostics) in PBS was immediately injected into the trachea. […] Number of metastatic nodule was counted on the surface of left lobe of lung, and picture of lung was taken with digital camera. The tumor size was measured using calipers, and the tumor volume was calculated by using the following equation: Tumor volume=(0.5236)×(width)^2×(length)
Either vehicle buffer (4 mM HCl, 1 mg/mL BSA) or TGF-β1 (50 ng/mouse) in vehicle buffer was given to mice intravenously at 2 h before mice were sacrificed. Tumor tissues from mice were lysed in RIPA buffer [50 mM Tris, pH 7.5, 150 mM NaCl, 0.1% sodium dodecyl sulfate, 0.5% sodium deoxycholate, 1% NP-40, 1 mM NaF, 1 mM Na3VO4, 1 mM PMSF, a protease inhibitor cocktail (1 tablet of Roche Diagnostics GmbH protease inhibitor cocktail/10 mL) (Roche)] for 20 min on ice. Lysates were cleared by centrifugation at 13000 rpm at 4° C. for 20 min. Protein content of supernatants was determined using Micro-BCA (bicinchoninic acid) protein assay kit (Thermo Scientific). Lysates containing 20-50 μg total protein were separated by electrophoresis on polyacrylamide gel and then electrophoretically transferred to polyvinylidene difluoride transfer membranes (Millipore, Billerica, Mass., USA). Membranes were blocked with 5% BSA (Sigma-Aldrich) in PBS containing 0.5% Tween-20 (PBST) for 1 h and incubated overnight at 4° C. with one of following antibodies: anti-phospho-Smad2 (Millipore), anti-Smad2/3 (BD Transduction Laboratories, NJ, USA), or anti-β-actin (Sigma-Aldrich) in PBST containing 1% BSA. […] Bound antibodies were detected using Western Blotting Luminol Reagent (SantaCruz Biotechnology). Band intensities were analyzed using a densitometer LAS-3000 imager (FUJIFILM, Tokyo, Japan).

MMTV/c-Neu mice = assay: Anti-metastatic effect on MMTV/c-Neu mice breast cancer model; assay type: in vivo; conditions: for β-casein mRNA expression level in the lung: 43.6 mg/kg intraperitoneally every other day, Example 61 three weeks, Example 3 ten weeks
Method: Anti-metastatic Effect on MMTV/c-Neu mice breast cancer model MMTV/c-Neu female transgenic mice were purchased from Jackson Laboratory (Bar Harbor, Me., USA). Animals were maintained in a temperature-controlled SPF room (22° C.) and supplied with food and water ad libitum. In Experiment 1, Example 61 (43.6 mg/kg) dissolved in saline was given to thirty two-week-old MMTV/c-Neu mice intraperitoneally every other day for three weeks. […] Mice were sacrificed at 24 h after the last dosing, and tissues of mammary tumor and lung were analyzed by hematoxylin and eosin (H&E) staining To analyse β-casein mRNA level in tissues of mammary tumor and lung, total RNAs were isolated from these tissues using TRIzol reagent (Invitrogen Corporation) and RNeasy Mini kit (Qiagen) according to the manufacturer's instruction. The cDNAs were synthesized from 2 μg of total RNAs using random primer (Invitrogen Corporation) by MMLV RTase (Invitrogen Corporation) for 1 h at 37° C. and subjected to PCR amplification using Taq polymerase (Promega) and following gene-specific primers: mouse GAPDH (forward) 5′-[…]-3′ and (reverse) 5′-[…]-3′, mouse β-casein (forward) 5′-[…]-3′ and (reverse) 5′-[…]-3′. Amplified DNA was analyzed by agarose gel electrophoresis.
Activity of MMP-9 and MMP-2 in the primary mammary tumor was measured by gelatin zymography. Tumor tissues from mice (30 mg) was lysed in 500 μL RIPA buffer (50 mM Tris, 150 mM NaCl, 0.1% sodium dodecyl sulfate, 0.5% sodium deoxycholate, 1% NP-40, protease inhibitor without EDTA) for 10-20 min on ice. Lysates were cleared by centrifugation at 13000 rpm at 4° C. for 10 min. Protein content of supernatants was determined using Micro-BCA protein assay kit (Thermo Scientific). Loading samples were prepared by adding loading buffer (0.5 M Tris, pH 6.8, 50% glycerol, 10% SDS, and 1% bromophenol blue solution) into lysates containing 15 μg of total protein. Loading samples were heated at 60° C. for 5 min and separated by electrophoresis on 10% polyacrylamide gel containing 0.2% gelatin. Gel was washed twice with washing buffer [2.5% Triton-X100, 0.05 M Tris-HCl, pH 7.5, and 0.1 M NaCl] for 30 min at room temperature. […] Gel image was obtained using a densitometer LAS-3000 imager (FUJIFILM) in cybergreen mode.

[3] = tested on: bile duct-ligated (BDL) rats; assay: Anti-fibrotic effect on bile duct-ligated liver fibrosis model; assay type: in vivo; conditions: for Body weight / Organ weight Liver / Organ weight Liver/Body / Organ weight Spleen / Organ weight Spleen/Body: mean ± S.E.
[4] = BDL rats, 21.8 mg/kg orally three times per week for four weeks
[5] = BDL rats, 43.6 mg/kg orally three times per week for four weeks
[6] = Sham-operated rats, 43.6 mg/kg orally three times per week for four weeks
[7] = orally three times per week for four weeks, Example 2 5, 10, 20 mg/kg, Example 3 21.8, 43.6 mg/kg
[8] = orally three times per week for four weeks, Western blot
[9] = 43.6 mg/kg intraperitoneally every other day for ten weeks, gelatin zymography

**Q.** What does the source list for `Cc1cccc(-c2[nH]c(Cc3cccc(C(N)=O)c3)nc2-c2ccc3nccnc3c2)n1` [IN-1130]?
**A.** experimental autoimmune encephalomyelitis (EAE) [1]: ameliorates; penile curvature (rats): corrects; tunical fibrosis (rats): lessens; renal fibrosis induced by unilateral ureteral obstruction (UUO) (UUO rats): effectively suppresses; tumor volume (Tramp C2): dramatically reduces

**Q.** With `Cc1cccc(-c2[nH]c(CNc3cccc(C#N)c3)nc2-c2ccc3ncnn3c2)n1.Cl` [Example 61] as the compound, how does the “number of metastastic nodules on the lung” value [2] read?
**A.** Its value is “significantly reduced”.

**Q.** What about the “number of metastastic lesions in the lung” value (MMTV/c-Neu mice; 43.6 mg/kg intraperitoneally every other day for three weeks) of the same compound?
**A.** Its value is “significantly reduced”.

**Q.** And the “β-casein mRNA expression level in the lung” value (MMTV/c-Neu mice)?
**A.** The value was “significantly inhibited”.

**Q.** For `Cc1cccc(-c2[nH]c(CNc3ccccc3F)nc2-c2ccc3ncnn3c2)n1.Cl` [Example 3], which “Smad signaling in BDL rat liver (pSmad3)” value ([3]; 21.8 or 43.6 mg/kg orally three times per week for four weeks, Western blot) is on record?
**A.** Its value is “inhibited”.

**Q.** What about the Body weight [3, 4] of the same compound?
**A.** The Body weight was 340 ± 0.6 g.

**Q.** What about the “Organ weight Liver” value [3, 4] of the same compound?
**A.** The value was 16.4 ± 0.72**^,## g.

**Q.** What about the “Organ weight Liver/Body” value [3, 4] of the same compound?
**A.** The value was 4.85 ± 0.26**^,## %.

**Q.** What about the “Organ weight Spleen” value [3, 4] of the same compound?
**A.** The value was 1.30 ± 0.07 g.

**Q.** And the “Organ weight Spleen/Body” value [3, 4]?
**A.** Its value is 0.39 ± 0.03**^,## %.

**Q.** What about the Body weight [3, 5] of the same compound?
**A.** The Body weight was 335 ± 8.4 g.

**Q.** What about the “Organ weight Liver” value [3, 5] of the same compound?
**A.** Its value is 16.1 ± 0.57**^,## g.

**Q.** What about the “Organ weight Liver/Body” value [3, 5] of the same compound?
**A.** The value was 4.84 ± 0.26**^,## %.

**Q.** And the “Organ weight Spleen” value [3, 5]?
**A.** Its value is 1.19 ± 0.09 g.

**Q.** What about the “Organ weight Spleen/Body” value [3, 5] of the same compound?
**A.** Its value is 0.36 ± 0.03**^,## %.

**Q.** What about the Body weight [3, 6] of the same compound?
**A.** The Body weight was 354 ± 12.2 g.

**Q.** What about the “Organ weight Liver” value [3, 6] of the same compound?
**A.** The value was 11.8 ± 0.71 g.

**Q.** What about the “Organ weight Liver/Body” value [3, 6] of the same compound?
**A.** Its value is 3.34 ± 0.12%.

**Q.** And the “Organ weight Spleen” value [3, 6]?
**A.** The value was 0.81 ± 0.04 g.

**Q.** What about the “Organ weight Spleen/Body” value [3, 6] of the same compound?
**A.** Its value is 0.23 ± 0.01%.

**Q.** What about the BDL-induced histological change ([3]; liver, H&E staining) of the same compound?
**A.** Its BDL-induced histological change is “greatly abolished”.

**Q.** And the “body weight loss in BDL rats” value [3, 7]?
**A.** The value was “recovered”.

**Q.** What about the “organ (liver and spleen) weight in BDL rats” value [3, 7] of the same compound?
**A.** Its value is “decreased”.

**Q.** And the “serum ALT in BDL rats” value [3, 7]?
**A.** The value was “improved”.

**Q.** And the “serum AST in BDL rats” value [3, 7]?
**A.** Its value is “improved”.

**Q.** What about the “fibronectin in BDL rat liver” value [3, 8] of the same compound?
**A.** Its value is “suppressed”.

**Q.** And the “vimentin in BDL rat liver” value [3, 8]?
**A.** Its value is “suppressed”.

**Q.** What about the “α-SMA in BDL rat liver” value [3, 8] of the same compound?
**A.** Its value is “suppressed”.

**Q.** What about the “number of metastastic nodules on the lung” value [2] of the same compound?
**A.** Its value is “significantly reduced”.

**Q.** What about the “activity of MMP-2 in the primary mammary tumor” value (MMTV/c-Neu mice; [9]) of the same compound?
**A.** Its value is “significantly inhibited”.

**Q.** What about the “activity of MMP-9 in the primary mammary tumor” value (MMTV/c-Neu mice; [9]) of the same compound?
**A.** The value was “significantly inhibited”.

**Q.** What about the “β-casein mRNA expression level in the lung” value (MMTV/c-Neu mice) of the same compound?
**A.** Its value is “significantly inhibited”.
